Drawing on patent publication US7612055B2, “Macrocyclic lactams and pharmaceutical use thereof” (Novartis AG, priority 2003, dated 2009), this text covers melting point for one molecule.

The melting point is the temperature of the solid-liquid transition.

`CCCCNC(=O)C(C)CC(O)C1C[C@H](C)CCCCCCNc2cc(cc(OC)n2)C(=O)N1` (stereo partly drawn) [Example 11, N-Butyl-4-hydroxy-4-((9R)-16-methoxy-9-methyl-13-oxo-2,12,17-triaza-bicyclo[12.3.1]octadeca-1(17),14(18),15-trien-11-yl)-2-methyl-butyramide]: the melting point was 178 to 182 °C.
